Measurements: patent publication US12139505B2, “Compositions useful in therapy of autophagy-related pathologies, and methods of making and using the same” (The University of Toledo, priority 2017, dated 2024)
“Also recorded” adds a separate entry of the source.

Legend:
SH-SY5Y cells = assay: Western blot for LC3-II (autophagy induction with bafilomycin-A1); type: cell-based, human
Procedure: (FIG. 35B). […] In a dose dependent manner with a maximum of 6 μM.
2-n-hexyl-LKE-P drug solutions in CCM from 0.1 to 100 μM were prepared as above for the viability assay except that the drug solutions contained 10 nM bafilomycin A1. For positive control: 50 nM rapamycin in CCM containing 10 nM bafilomycin A1 was used. For negative control: 1 μL of DMSO is dissolved in every 100 μL of CCM containing 10 nM bafilomycin A1. When SH-SY5Y cells were 85-90% confluent, 300,000 cells per well were seeded into 12-well plates. Cells were exposed to four concentrations of 2-n-hexyl-LKE-P, positive control and negative control for 4 hours at 37° C. in 5% CO2 in air atmosphere. Subsequently, the cells were washed with PBS, next, 0.25% Trypsin/EDTA was used to aid in detaching the cells and CCM was then added to neutralize the Trypsin/EDTA and wash the cells from the dish. Washed cells were collected in a centrifuge tube for concentration. After centrifugation at 2000 RPM for 5 minutes, the cells were re-suspended in PBS and re-centrifuged to pellets. The supernatant was then discarded and the cell pellets were frozen in −20° C. freezer. 50 μL lysis buffer (RIPA buffer plus, 1 mM sodiumorthovanadate, 5 mM β-glycerophosphate and 1:200 mammalian protease inhibitor cocktail) was added to the cells and the cells were re-suspended in the lysis buffer. […] The membranes were then ready for imaging.

[1] = tested on: d42-Gal4;UAS-nSyb-GFPxUAS-C9orf72polyGR36 flies; assay: Fly sleep behavior, C9orf72 ALS model; type: in vivo, Drosophila melanogaster
Procedure: The base for the food was a cornmeal agar product, Nutri-fly BF (Genesee Scientific, Box of 10, 1-liter bags, Cat #66-112). In a 2 L beaker, 1 L of ultrapure water was heated to […], with the stir bar speed set to 600. To the beaker, one bag of Nutri-fly BF was added in small portions. The beaker was covered to maintain temperature (monitored with an inserted thermometer) while stirring as rapidly as possible until the temperature reached 97° C. The food was stirred at this temperature for 10 minutes using a wooden spoon/spatula, then allowed to cool to approximately 65° C. with continuous stirring (magnetic bar). At 65° C., while maintaining constant stirring, 12 mL of Tegosept was added followed by 7 mL of propionic acid solution. To be used as fly maintenance food, the food was allowed to cool to 55° C. and 4 mL of the food was aliquoted (to a depth of approximately 1 inch) into individual vials with mity drosophila plugs (VWR #75813-162 and #10054-506). For use as a drug delivery vehicle, the food was allowed to cool to room temperature while covered with aluminum foil, then sealed with parafilm stored at 4° C. To prepare the food for drug delivery, the food was homogenized at room temperature with an immersion blender. To prepare the drug-infused-food, about half of the calculated food, accurately measured, was added to a 250 mL beaker, followed by the drug (no carrier solvent is used). The drug was then covered with the rest of the food and the contents of the beaker were thoroughly mixed with an overhead mixer (with shroud removed) until the drug was distributed homogeneously within the food. The food was then distributed in 4.00 g aliquots to the vials with plugs (described above). The food-containing vials were centrifuged in 50 mL tubes at an appropriate speed (approximately 1000 to 1400 g) to just force the “drug food” to the bottom of the feeding vial. The vials were closed with the cotton mity plug until use.
Test flies were transferred individually, under CO2 anesthesia, into 5 mm×65 mm (outside diameter×length) polycarbonate recording tubes with either minimal media or normal fly food on one end and yarn plugs on the other. Sleep parameters were continuously evaluated using the TriKinetics Drosophila activity monitoring system. Sleep is defined as 5 min or more of continuous inactivity, the minimum amount of time to qualify as a single sleep bout. Zeitgeber time (ZT) 0 is defined as the time of lights on and ZT12 is defined as the time of lights off. Mobility (activity) was also monitored and data tabulated based on the number of beam counts and diurnal variations were calculated. The sleep and mobility data were collected and analyzed.

PINK1^B9 flies = assay: Fly sleep behavior; type: in vivo, Drosophila melanogaster
Procedure: 2-n-hexyl-LKE-P was dissolved in DMSO and supplemented into a warm solution of minimal media (5% sucrose, 2% agarose and water, 60° C.) to a final concentration of 10, 100 and 1000 μM. Freshly eclosed adult flies were transferred to minimal media containing the drug for one day followed by the experiments. Flies were transferred individually, under CO2 anesthesia, into 5 mm×65 mm (outside diameter×length) polycarbonate recording tubes with food on one end and yarn plugs on the other. Sleep parameters were continuously evaluated using the TriKinetics Drosophila activity monitoring system. Sleep is defined as 5 min or more of continuous inactivity, the minimum amount of time to qualify as a single sleep bout. Zeitgeber time (ZT) 0 is defined as the time of lights on, and ZT12 is defined as the time of lights off. Mobility (activity) was also monitored and data tabulated based on the number of beam counts, and diurnal variations were calculated. The sleep and mobility data were collected and analyzed.

## CCCCCCC1=C(P(=O)(O)O)N[C@H](C(=O)OCC)CS1 [2-n-hexyl-LKE-P]
SH-SY5Y cells; in the presence of bafilomycin-A1
  autophagy stimulation (LC3-I, LC3-II): stimulates autophagy in a dose dependent manner; also recorded: able to stimulate autophagy
SH-SY5Y cells; in the presence of bafilomycin-A1, 0.1 to 10 μM tested
  concentration of maximum autophagy stimulation: 6 µM
[1]; d42-Gal4: UAS-nSyb-GFPxUAS-W1118 control flies
  daytime sleeping time of control flies: did not change the daytime sleeping time of control flies
[1]; polyGR36 in motor neurons
  number of sleep bouts during the day: decreased the number of sleep bouts during the day
  total sleep time: increased total sleep time
[1]; polyGR36 in motor neurons, drug in food throughout development
  daytime sleepiness / daytime sleeping time of mutant flies: decreased the daytime sleeping time of mutant flies; also recorded: rescued the daytime sleepiness
PINK1^B9 flies; Day 1 or Day 8
  sleep of treated wild-type flies versus vehicle-treated wild-type flies: No differences were observed
PINK1^B9 flies; day 1, 1000 μM
  daytime sleep of PINK1^B9 flies: did not change the sleeping pattern and the daytime sleeping time; also recorded: did not show any changes
PINK1^B9 flies; day 8 (one week), 1000 μM
  daytime sleep of PINK1^B9 flies: decreased the daytime sleeping time; also recorded: reversal of excessive daytime sleep
